Results reported in paper PMC11981937 (Nature, 2025).
Several values for one entry are separate records, joined by “and”; a condition that tells them apart may be missing. Identical values can stand only once. Like-named read-outs stand apart in the source and are kept apart here.

Key:
SARS-CoV-2 B1 = type: in vivo, Syrian golden hamster; conditions: pre-exposure
[1] = type: in vivo, Syrian golden hamster; conditions: Molnupiravir 200 mpk BID, pre-exposure
[2] = Post-exposure Syrian golden hamster model, body weight; conditions: in vivo
SARS-CoV-2 = type: in vivo, Syrian golden hamster; conditions: for Infectious virus in the lung (TCID50), Copy number, individual animal / Infectious virus in the lung (TCID50), Log 10, individual animal / Viral load (viral RNA) in the lung, Copy number, individual animal / Viral load (viral RNA) in the lung, Log 10, individual animal / Infectious virus in the lung (TCID50), average Log 10 / Infectious virus in the lung (TCID50), median Log 10 / Viral load (viral RNA) in the lung, average Log 10 / Viral load (viral RNA) in the lung, median Log 10: 250mg/kg/ BID; for Infectious virus in the lung (TCID50), average Log 10 / Infectious virus in the lung (TCID50), median Log 10 / Viral load (viral RNA) in the lung, average Log 10 / Viral load (viral RNA) in the lung, median Log 10: n=5
[3] = system: SARS-CoV-2 (USA-WA1/2020); set-up: species or system Syrian golden hamster; conditions: hamster, in vivo

**Q.** For `CC(C)C(=O)OC[C@H]1O[C@@H](n2ccc(NO)nc2=O)[C@H](O)[C@@H]1O` [molnupiravir, reference compound], which “Histopathology score, average” value (SARS-CoV-2 B1; 200 mg/kg/ BID, n=5) is on record?
**A.** 2.10

**Q.** And the “Histopathology score, median” value (SARS-CoV-2 B1; 200 mg/kg/ BID, n=5)?
**A.** 1.50

**Q.** What about the “Infectious virus in the lung (TCID50/mg), average Log 10” value (SARS-CoV-2 B1; 200 mg/kg/ BID, n=5) of the same compound?
**A.** 4.54 Log 10

**Q.** And the “Infectious virus in the lung (TCID50/mg), median Log 10” value (SARS-CoV-2 B1; 200 mg/kg/ BID, n=5)?
**A.** 4.21 Log 10

**Q.** What about the “Viral load (viral RNA) in the lung, average Log 10” value (SARS-CoV-2 B1; 200 mg/kg/ BID, n=5) of the same compound?
**A.** 9.78 Log 10

**Q.** And the “Viral load (viral RNA) in the lung, median Log 10” value (SARS-CoV-2 B1; 200 mg/kg/ BID, n=5)?
**A.** 9.74 Log 10

**Q.** What about the “Histopathology score, individual animal” value (SARS-CoV-2 B1; 200 mg/kg/ BID, 200 mg/kg) of the same compound?
**A.** 1.5 and 3

**Q.** And the “Infectious virus in the lung (TCID50/mg), Log 10, individual animal” value (SARS-CoV-2 B1; 200 mg/kg/ BID, 200 mg/kg)?
**A.** 4.01 Log 10 and 3.36 Log 10 and 6.13 Log 10 and 4.21 Log 10 and 4.99 Log 10

**Q.** And the “Infectious virus in the lung, individual animal” value (SARS-CoV-2 B1; 200 mg/kg/ BID, 200 mg/kg)?
**A.** 10248.12 TCID50/mg and 2288.60 TCID50/mg and 1353038.68 TCID50/mg and 16040.54 TCID50/mg and 98821.18 TCID50/mg

**Q.** What about the “Viral load (viral RNA) in the lung, Copy number, individual animal” value (SARS-CoV-2 B1; 200 mg/kg/ BID, 200 mg/kg) of the same compound?
**A.** 5.44E+09 and 8.11E+09 and 8.53E+09 and 4.38E+09 and 4.90E+09

**Q.** And the “Viral load (viral RNA) in the lung, Log 10, individual animal” value (SARS-CoV-2 B1; 200 mg/kg/ BID, 200 mg/kg)?
**A.** 9.74 Log 10 and 9.91 Log 10 and 9.93 Log 10 and 9.64 Log 10 and 9.69 Log 10

**Q.** And the “decline in antiviral parameters (in words)” value (SARS-CoV-2 B1; 300 mg per kg BID, reference)?
**A.** not significant

**Q.** And the “% body weight change compared to day 0, Avg” value ([1]; day 4 vs day 0, group average)?
**A.** 3.04%

**Q.** What about the “% body weight change compared to day 0” value ([1]; day 4 vs day 0, individual animals) of the same compound?
**A.** 2.6% and 2.4% and 5% and 3% and 2.2%

**Q.** What does the source list for `CC(C)(C)[C@H](NC(=O)C(F)(F)F)C(=O)N1C[C@H]2[C@@H]([C@H]1C(=O)N[C@H](C#N)C[C@@H]1CCNC1=O)C2(C)C` [nirmatrelvir, reference compound]?
**A.** Average body weight change (%) on day 4 compared to day 0 [2]: -2.756% and -3.747% and -5.087%; Infectious virus in the lung (TCID50), Copy number, individual animal (SARS-CoV-2; 10 h post exposure): 2.74E+02 and 1.40E+02 and 3.86E+02; Infectious virus in the lung (TCID50), Log 10, individual animal (SARS-CoV-2; 10 h post exposure): 2.44 Log 10 and 3.68 Log 10 and 2.14 Log 10 and 3.67 Log 10 and 2.59 Log 10; Viral load (viral RNA) in the lung, Copy number, individual animal (SARS-CoV-2; 10 h post exposure): 3.26E+07 and 1.08E+07 and 4.11E+07 and 4.76E+07 and 5.79E+06; Viral load (viral RNA) in the lung, Log 10, individual animal (SARS-CoV-2; 10 h post exposure): 7.51 Log 10 and 7.03 Log 10 and 7.61 Log 10 and 7.68 Log 10 and 6.76 Log 10; Infectious virus in the lung (TCID50), average Log 10 (SARS-CoV-2; 10 h post exposure): 2.90 Log 10; Infectious virus in the lung (TCID50), median Log 10 (SARS-CoV-2; 10 h post exposure): 2.59 Log 10; Viral load (viral RNA) in the lung, average Log 10 (SARS-CoV-2; 10 h post exposure): 7.32 Log 10; Viral load (viral RNA) in the lung, median Log 10 (SARS-CoV-2; 10 h post exposure): 7.51 Log 10; Infectious virus in the lung (TCID50), Copy number, individual animal (SARS-CoV-2; 24 h post exposure): 3.74E+03 and 5.43E+02 and 1.15E+04 and 7.40E+03; Infectious virus in the lung (TCID50), Log 10, individual animal (SARS-CoV-2; 24 h post exposure): 3.57 Log 10 and 2.74 Log 10 and 4.06 Log 10 and 3.67 Log 10 and 3.87 Log 10; Viral load (viral RNA) in the lung, Copy number, individual animal (SARS-CoV-2; 24 h post exposure): 4.02E+07 and 9.08E+07 and 1.10E+07 and 3.49E+07 and 2.71E+07; Viral load (viral RNA) in the lung, Log 10, individual animal (SARS-CoV-2; 24 h post exposure): 7.60 Log 10 and 7.96 Log 10 and 7.04 Log 10 and 7.54 Log 10 and 7.43 Log 10; Infectious virus in the lung (TCID50), average Log 10 (SARS-CoV-2; 24 h post exposure): 3.58 Log 10; Infectious virus in the lung (TCID50), median Log 10 (SARS-CoV-2; 24 h post exposure): 3.67 Log 10; Viral load (viral RNA) in the lung, average Log 10 (SARS-CoV-2; 24 h post exposure): 7.52 Log 10; Viral load (viral RNA) in the lung, median Log 10 (SARS-CoV-2; 24 h post exposure): 7.54 Log 10; Infectious virus in the lung (TCID50), Copy number, individual animal (SARS-CoV-2; 48 h post exposure): 5.70E+02 and 4.90E+02 and 1.00E+02 and 6.63E+02 and 1.50E+03; Infectious virus in the lung (TCID50), Log 10, individual animal (SARS-CoV-2; 48 h post exposure): 2.76 Log 10 and 2.69 Log 10 and 2.00 Log 10 and 2.82 Log 10 and 3.17 Log 10; Viral load (viral RNA) in the lung, Copy number, individual animal (SARS-CoV-2; 48 h post exposure): 1.41E+08 and 2.05E+07 and 3.56E+08 and 4.63E+07 and 6.23E+07; Viral load (viral RNA) in the lung, Log 10, individual animal (SARS-CoV-2; 48 h post exposure): 8.15 Log 10 and 7.31 Log 10 and 8.55 Log 10 and 7.67 Log 10 and 7.79 Log 10; Infectious virus in the lung (TCID50), average Log 10 (SARS-CoV-2; 48 h post exposure): 2.69 Log 10; Infectious virus in the lung (TCID50), median Log 10 (SARS-CoV-2; 48 h post exposure): 2.76 Log 10; Viral load (viral RNA) in the lung, average Log 10 (SARS-CoV-2; 48 h post exposure): 7.89 Log 10; Viral load (viral RNA) in the lung, median Log 10 (SARS-CoV-2; 48 h post exposure): 7.79 Log 10; reduction of lung viral RNA load and infectious virus (in words) (SARS-CoV-2; post-exposure, 250 mg per kg BID): not significant; Infectious SARS-CoV2 virus in the lung, Avg [3]: 4651963 PFU/g Lung; Infectious SARS-CoV2 virus in the lung, Log10, Avg [3]: 5.697 Log10 PFU/g Lung; SARS-CoV2 viral load (viral RNA) in the lung, Avg [3]: 46452968 RNA copies/mL; SARS-CoV2 viral load (viral RNA) in the lung, Log10, Avg [3]: 6.876 Log10 RNA copies/mL
